Measured values: patent US9371353B2, “Oligonucleotide with protected base” (Ajinomoto Co., Inc., priority 2012, dated 2016)

Test: Solubility test of nucleoside with protected 3′-hydroxyl group
Type: physicochemical
Experimental: The solubility (=solute/(solvent+solute)×100) (mass %) at 20° C., shown in the following Table 2, of the compound representing the present invention, thymidine wherein the 5′-hydroxyl group is protected by dimethoxytrityl group, and the 3′-hydroxyl group is protected by the branched chain-containing aromatic protecting group (Example 2), and thymidine wherein the 5′-hydroxyl group is protected by dimethoxytrityl group, and the 3′-hydroxyl group is protected by the corresponding group containing the straight chain structure (Comparative Example 2) as a comparison target thereof was measured.
[Solubility Measurement Method]
• 1) A solute (100 parts by mass) was added to a solvent (100 parts by mass) to saturation at 20° C. • 2) When the solute remained by visual observation, the supernatant was quantitatively analyzed under the following HPLC conditions, and the concentration was determined and taken as the solubility (=solute/(solvent+solute)×100)(mass %). • 3) When the solute was absent by visual observation, the solubility was >50 mass %. • [HPLC Analysis Conditions] • use instrument: Hitachi high performance liquid chromatography LaChrom Elite L-2000 series • column: YMC-PACK 5 μm 150×4.6 mm • column temperature: 40° C. • eluent: THF/CH3CN/H2O • flow rate: 1.0 ml/min

[1] = heptane/toluene/acetonitrile = 1/1/1, 20° C.

CCCCCCCCCCCCCCCCCCOc1cc(CNC(=O)CCC(=O)OC2CC(n3cc(C)c(=O)[nH]c3=O)OC2COC(c2ccccc2)(c2ccc(OC)cc2)c2ccc(OC)cc2)cc(OCCCCCCCCCCCCCCCCCC)c1OCCCCCCCCCCCCCCCCCC (stereo not drawn) [Comparative Example 2, 5′-O-(4,4′-dimethoxytrityl)-2′-deoxythymidin-3′-yl-N-(3,4,5-tris(octadecyloxy)benzyl)succinamate]
solubility (=solute/(solvent+solute)×100) (heptane, 20° C.): 0% by mass | solubility (=solute/(solvent+solute)×100) (heptane/toluene = 1/1, 20° C.): 22.3% by mass | solubility (=solute/(solvent+solute)×100) [1]: 13.7% by mass

COc1ccc(C(OCC2OC(n3cc(C)c(=O)[nH]c3=O)C[C@H]2OC(=O)CCC(=O)NCc2cc(OCCC(C)CCCC(C)CCCC(C)CCCC(C)C)c(OCCC(C)CCCC(C)CCCC(C)CCCC(C)C)c(OCCC(C)CCCC(C)CCCC(C)CCCC(C)C)c2)(c2ccccc2)c2ccc(OC)cc2)cc1 (stereo partly drawn) [Example 2, 5′-O-(4,4′-dimethoxytrityl)-2′-deoxythymidin-3′-yl-N-[3,4,5-tris(3,7,11,15-tetramethyl-1-hexadecanyloxy)benzyl]succinamate]
solubility (=solute/(solvent+solute)×100) (heptane, 20° C.): >50% by mass | solubility (=solute/(solvent+solute)×100) (heptane/toluene = 1/1, 20° C.): >50% by mass | solubility (=solute/(solvent+solute)×100) [1]: >50% by mass
